Experimental data: PMC10300102, “In vivo inhibition of nuclear ACE2 translocation protects against SARS-CoV-2 replication and lung damage through epigenetic imprinting” (Nature Communications, 2023)
Where a SMILES comes first, the peptide text is derived from it. The star is where a group is joined. Myristoyl = CCCCCCCCCCCCCC(=O)*

Experiment: Mouse tolerance studies
Type: in vivo, C57BL/6 J mice
Design: Mouse organ weight - i.v. treatment, Brain / Mouse organ weight - i.v. treatment, Heart / Mouse organ weight - i.v. treatment, Kidney / Mouse organ weight - i.v. treatment, Liver / Mouse organ weight - i.v. treatment, Lungs / Mouse organ weight - i.v. treatment, Spleen: unit not given here
Conditions: for Mouse organ weight - i.v. treatment, Brain / Mouse organ weight - i.v. treatment, Heart / Mouse organ weight - i.v. treatment, Kidney / Mouse organ weight - i.v. treatment, Liver / Mouse organ weight - i.v. treatment, Lungs / Mouse organ weight - i.v. treatment, Spleen: S 1f, mean, N 5
Protocol: For NACE2i intraperitoneal (i.p.) studies, female C57BL/6 J mice (6-8 weeks, 3 per group) were treated with a single bolus dose of NACE2i at 3, 10, 30, or 100 mg/kg intraperitoneally for seven days. For NACE2i intravenous (i.v.) studies, male C57BL/6 J mice (6–8 weeks, 5 per group) were treated with daily bolus doses of either sodium chloride 0.9% vehicle or NACE2i at 3, 10, or 30 mg/kg intravenously for six days. For ACE2i studies, male C57BL/6 J mice (6 weeks, 5 per group) were treated with daily bolus doses of either saline vehicle or ACE2i at 10, 30, or 100 mg/kg intravenously or at 3, 10, and 30 mg/kg intranasally (i.n.) for six days. All treatments were administered on day 1, and all mice were observed and weighed daily prior to being euthanized for organ examination. All mice were purchased from the Animal Resources Centre (Canning Vale, Western Australia, Australia) and studies were carried out by Agilex Biolabs (St Lucia, Queensland, Australia). Animals were maintained in housing rooms under controlled environmental conditions: individually ventilated cages (IVCs) with a 12/12 light/dark cycle. The ambient temperature is set to 20–25 °C and relative humidity at 30-70% rH. The University of Queensland Animal Ethics Committee assessed and approved all studies (project code 2021/AE000659).

[1] = i.p. single bolus 10 mg/kg, n=3
[2] = i.p. single bolus 30 mg/kg, n=3
[3] = i.p. single bolus 100 mg/kg, n=3
[4] = i.v. daily for 6 days 3 mg/kg, n=5
[5] = i.v. daily for 6 days 10 mg/kg, n=5
[6] = i.v. daily for 6 days 30 mg/kg, n=5

CCCCCCCCCCCCCC(=O)N[C@H](C(=O)NCC(=O)N[C@H](C(=O)N[C@@H](CCCNC(=N)N)C(=O)N[C@@H](CC(=O)O)C(=O)N[C@@H](CCCNC(=N)N)C(=O)N[C@@H](CCCCN)C(=O)N[C@@H](CCCCN)C(=O)N[C@@H](CCCCN)C(=O)N[C@@H](CC(N)=O)C(=O)N[C@@H](CCCCN)C(=O)N[C@@H](C)C(=O)N[C@@H](CCCNC(=N)N)C(=O)N[C@@H](CO)C(=O)O)[C@@H](C)CC)[C@@H](C)O [NACE2i] (Myristoyl-TGIRDRKKKNKARS-OH)
Diarrhoea - Mild (number of animals) (IP route, 3 mg/kg, n = 3): 0
No abnormalities (number of animals) (IP route, 3 mg/kg, n = 3): 3
Palpebral Closure - Mild (number of animals) (IP route, 3 mg/kg, n = 3): 0
Piloerection - Mild (number of animals) (IP route, 3 mg/kg, n = 3): 0
Reduced Activity - Mild (number of animals) (IP route, 3 mg/kg, n = 3): 0
Reduced Activity - Moderate (number of animals) (IP route, 3 mg/kg, n = 3): 0
Right limb raised - Mild (number of animals) (IP route, 3 mg/kg, n = 3): 0
Diarrhoea - Mild (number of animals) (IP route, 10 mg/kg, n = 3): 0
No abnormalities (number of animals) (IP route, 10 mg/kg, n = 3): 3
Palpebral Closure - Mild (number of animals) (IP route, 10 mg/kg, n = 3): 0
Piloerection - Mild (number of animals) (IP route, 10 mg/kg, n = 3): 0
Reduced Activity - Mild (number of animals) (IP route, 10 mg/kg, n = 3): 0
Reduced Activity - Moderate (number of animals) (IP route, 10 mg/kg, n = 3): 0
Right limb raised - Mild (number of animals) (IP route, 10 mg/kg, n = 3): 0
Diarrhoea - Mild (number of animals) (IP route, 30 mg/kg, n = 3): 0
No abnormalities (number of animals) (IP route, 30 mg/kg, n = 3): 0
Palpebral Closure - Mild (number of animals) (IP route, 30 mg/kg, n = 3): 1
Piloerection - Mild (number of animals) (IP route, 30 mg/kg, n = 3): 0
Reduced Activity - Mild (number of animals) (IP route, 30 mg/kg, n = 3): 3
Reduced Activity - Moderate (number of animals) (IP route, 30 mg/kg, n = 3): 0
Right limb raised - Mild (number of animals) (IP route, 30 mg/kg, n = 3): 3
Diarrhoea - Mild (number of animals) (IP route, 100 mg/kg, n = 3): 1
No abnormalities (number of animals) (IP route, 100 mg/kg, n = 3): 0
Palpebral Closure - Mild (number of animals) (IP route, 100 mg/kg, n = 3): 0
Piloerection - Mild (number of animals) (IP route, 100 mg/kg, n = 3): 2
Reduced Activity - Mild (number of animals) (IP route, 100 mg/kg, n = 3): 2
Reduced Activity - Moderate (number of animals) (IP route, 100 mg/kg, n = 3): 2
Right limb raised - Mild (number of animals) (IP route, 100 mg/kg, n = 3): 0
Hunched Posture - Mild (number of animals) (IV route, 3 mg/kg, n = 5): 0
No abnormalities (number of animals) (IV route, 3 mg/kg, n = 5): 5
Palpebral Closure - Mild (number of animals) (IV route, 3 mg/kg, n = 5): 0
Piloerection - Mild (number of animals) (IV route, 3 mg/kg, n = 5): 0
Reduced Activity - Mild (number of animals) (IV route, 3 mg/kg, n = 5): 0
Reduced Activity - Moderate (number of animals) (IV route, 3 mg/kg, n = 5): 0
Tremors - Mild (number of animals) (IV route, 3 mg/kg, n = 5): 0
Hunched Posture - Mild (number of animals) (IV route, 10 mg/kg, n = 5): 0
No abnormalities (number of animals) (IV route, 10 mg/kg, n = 5): 5
Palpebral Closure - Mild (number of animals) (IV route, 10 mg/kg, n = 5): 0
Piloerection - Mild (number of animals) (IV route, 10 mg/kg, n = 5): 0
Reduced Activity - Mild (number of animals) (IV route, 10 mg/kg, n = 5): 0
Reduced Activity - Moderate (number of animals) (IV route, 10 mg/kg, n = 5): 0
Tremors - Mild (number of animals) (IV route, 10 mg/kg, n = 5): 0
Hunched Posture - Mild (number of animals) (IV route, 30 mg/kg, n = 5): 1
No abnormalities (number of animals) (IV route, 30 mg/kg, n = 5): 0
Palpebral Closure - Mild (number of animals) (IV route, 30 mg/kg, n = 5): 1
Piloerection - Mild (number of animals) (IV route, 30 mg/kg, n = 5): 0
Reduced Activity - Mild (number of animals) (IV route, 30 mg/kg, n = 5): 4
Reduced Activity - Moderate (number of animals) (IV route, 30 mg/kg, n = 5): 5
Tremors - Mild (number of animals) (IV route, 30 mg/kg, n = 5): 5
Mouse organ weight - i.v. treatment, Brain (i.v. 3 mg/kg): 452.46
Mouse organ weight - i.v. treatment, Heart (i.v. 3 mg/kg): 113.88
Mouse organ weight - i.v. treatment, Kidney (i.v. 3 mg/kg): 265.49
Mouse organ weight - i.v. treatment, Liver (i.v. 3 mg/kg): 1316.2
Mouse organ weight - i.v. treatment, Lungs (i.v. 3 mg/kg): 151.37
Mouse organ weight - i.v. treatment, Spleen (i.v. 3 mg/kg): 70.61
Mouse organ weight - i.v. treatment, Brain (i.v. 10 mg/kg): 451.76
Mouse organ weight - i.v. treatment, Heart (i.v. 10 mg/kg): 110.14
Mouse organ weight - i.v. treatment, Kidney (i.v. 10 mg/kg): 258.06
Mouse organ weight - i.v. treatment, Liver (i.v. 10 mg/kg): 1432.4
Mouse organ weight - i.v. treatment, Lungs (i.v. 10 mg/kg): 140.86
Mouse organ weight - i.v. treatment, Spleen (i.v. 10 mg/kg): 79.75
Mouse organ weight - i.v. treatment, Brain (i.v. 30 mg/kg): 422.35
Mouse organ weight - i.v. treatment, Heart (i.v. 30 mg/kg): 102.55
Mouse organ weight - i.v. treatment, Kidney (i.v. 30 mg/kg): 221.42
Mouse organ weight - i.v. treatment, Liver (i.v. 30 mg/kg): 1090.2
Mouse organ weight - i.v. treatment, Lungs (i.v. 30 mg/kg): 130.37
Mouse organ weight - i.v. treatment, Spleen (i.v. 30 mg/kg): 68.35
body weight (female C57BL/6 J mice, single i.p. bolus up to 100 mg/kg, seven days): without significant changes in body weight
Diarrhoea, mild (number of mice) (i.p. single bolus 3 mg/kg, n=3): 0
No abnormalities (number of mice) (i.p. single bolus 3 mg/kg, n=3): 3
Palpebral closure, mild (number of mice) (i.p. single bolus 3 mg/kg, n=3): 0
Piloerection, mild (number of mice) (i.p. single bolus 3 mg/kg, n=3): 0
Reduced activity, mild (number of mice) (i.p. single bolus 3 mg/kg, n=3): 0
Reduced activity, moderate (number of mice) (i.p. single bolus 3 mg/kg, n=3): 0
Right limb raised, mild (number of mice) (i.p. single bolus 3 mg/kg, n=3): 0
Diarrhoea, mild (number of mice) [1]: 0
No abnormalities (number of mice) [1]: 3
Palpebral closure, mild (number of mice) [1]: 0
Piloerection, mild (number of mice) [1]: 0
Reduced activity, mild (number of mice) [1]: 0
Reduced activity, moderate (number of mice) [1]: 0
Right limb raised, mild (number of mice) [1]: 0
Diarrhoea, mild (number of mice) [2]: 0
No abnormalities (number of mice) [2]: 0
Palpebral closure, mild (number of mice) [2]: 1
Piloerection, mild (number of mice) [2]: 0
Reduced activity, mild (number of mice) [2]: 3
Reduced activity, moderate (number of mice) [2]: 0
Right limb raised, mild (number of mice) [2]: 3
Diarrhoea, mild (number of mice) [3]: 1
No abnormalities (number of mice) [3]: 0
Palpebral closure, mild (number of mice) [3]: 0
Piloerection, mild (number of mice) [3]: 2
Reduced activity, mild (number of mice) [3]: 2
Reduced activity, moderate (number of mice) [3]: 2
Right limb raised, mild (number of mice) [3]: 0
Hunched posture, mild (number of mice) [4]: 0
No abnormalities (number of mice) [4]: 5
Palpebral closure, mild (number of mice) [4]: 0
Piloerection, mild (number of mice) [4]: 0
Reduced activity, mild (number of mice) [4]: 0
Reduced activity, moderate (number of mice) [4]: 0
Tremors, mild (number of mice) [4]: 0
Hunched posture, mild (number of mice) [5]: 0
No abnormalities (number of mice) [5]: 5
Palpebral closure, mild (number of mice) [5]: 0
Piloerection, mild (number of mice) [5]: 0
Reduced activity, mild (number of mice) [5]: 0
Reduced activity, moderate (number of mice) [5]: 0
Hunched posture, mild (number of mice) [6]: 1
No abnormalities (number of mice) [6]: 0
Palpebral closure, mild (number of mice) [6]: 1
Piloerection, mild (number of mice) [6]: 0
Reduced activity, mild (number of mice) [6]: 4
Reduced activity, moderate (number of mice) [6]: 5
Tremors, mild (number of mice) [6]: 5
body or organ weight (male C57BL/6 J mice, daily i.v. bolus up to 30 mg/kg for six days): without significant changes in body or organ weight
